{"source": "patent US10280404B2", "about": "“Optimized HCV full-length infectious cell culture systems and applications thereof” (Hvidore Hospital, priority 2014, dated 2019)", "key": {"Huh7.5 cells": {"tested_on": "Huh7.5 cells", "experiment": "HCV infectivity titers (FFU assay) of culture supernatant after RNA transfection or viral passage", "format": "cell-based, human", "description": "Transfection and infection of Huh7.5 cells. The human hepatoma cell line Huh7.5 was maintained as described. Cells were plated in 6-well plates (˜3.5×10^5 cells/well) ˜24 hours before RNA transfection or viral infection, reaching 80-90% confluence at the time of inoculation. RNA transfection and viral infection were performed as previously described. The transfected or infected cultures were incubated for ˜16 hours, and sub-cultured every 2-3 days; culture supernatant was collected, filtered (0.45 μm), and stored at […] until analysis.\nAnalysis of HCV in cultured cells. […] Percentage of HCV antigen positive cells in the culture was determined with fluorescence microscopy. Culture supernatants were collected when 80% of cells were HCV antigen positive (peak infection) and HCV infectivity titers were determined by an FFU assay using a combination of C7-50 and 9E10, as previously described. […] The number of FFU was automatically counted with an ImmunoSpot Series 5 UV Analyzer with customized software (CTL Europe GmbH). HCV RNA titers in the culture supernatant were determined using real time RT-PCR TaqMan method. Core antigen levels were determined by the Architect HCV Ag detection system (Abbott) following manufacturer's instructions. Whole ORF sequences of passaged viruses were determined using procedures previously described for the sequencing of H77C and JFH1 genomes."}, "CD81-deficient S29 cells": {"tested_on": "CD81-deficient S29 cells", "experiment": "Single-cycle production assay: intra- and extracellular infectivity titers and core levels", "format": "cell-based, human", "settings": "48 hours after transfection", "description": "Determination of intra- and extra-cellular HCV core levels and infectivity titers. For single-cycle production assays, an Huh7-derived CD-81 deficient cell line S29 was transfected with HCV RNA and intracellular HCV core levels were measured 4 and 48 hours post transfection. Additionally, intra- and extra-cellular HCV infectivity titers, as well as extracellular HCV core concentration, were determined 48 hours post transfection, as described previously. Briefly, for this assay, S29 cells were seeded in 6 well plates (˜3.5×10^5 cells/well) 24 hours prior to transfection. Plasmids of the different full-length clones were digested with XbaI (New England Biolabs, NEB) for linearization and treated with Mung Bean nuclease (NEB). HCV RNA was generated by in vitro transcription using T7 RNA polymerase (Promega). […] RNA was quantified using spectrophotometry (NanoDrop) and 10 μg of RNA was used for transfection with Lipofectamine 2000 (Invitrogen). […] Both, intra- and extra-cellular core antigen levels were determined by the Architect HCV Ag detection system (Abbott) following the manufacturer's instructions. […] Specific dilutions were analyzed in triplicate for HCV infectivity titers, and the FFU was counted using an ImmunoSpot Series 5 UV Analyzer with customized software (CTL Europe GmbH), and confirmed by manual count. […]"}}, "note": "Entries after “also recorded” stand apart in the source; their conditions may differ.", "data": [{"substance": "HCV1_LSGF/S399F/TNm/4m: full-length HCV-1 recombinant with LSGF/S399F/TNm plus A970T/I1312V/C2419R/A2919T", "values": [{"measurement": "day at which HCV infectivity titers were first detectable", "setting": "Huh7.5 cells; after transfection of Huh7.5 cells, detection limit 10^2.4 FFU/ml", "value": 4, "unit": "days"}, {"measurement": "infectivity titers compared with HCV1cc", "setting": "Huh7.5 cells; transfected Huh7.5 cells", "value": "slightly lower than those of HCV1cc; also recorded: close to those of HCV1cc"}, {"measurement": "extracellular infectivity titers", "setting": "CD81-deficient S29 cells", "value": "comparable to those of HCV1cc"}]}]}
